{
  "source": "patent US12370202B2",
  "about": "“Methods and compositions for inhibiting the NLRP3 inflammasome and/or LON protease” (TRITERPENOID THERAPEUTICS, INC., priority 2019, dated 2025)",
  "key": {"[1]": {"test_system": "NLRP3 inflammasome", "assay": "NLRP3 inflammasome activation in LPS-primed BMDM, IL-1β ELISA", "format": "cell-based, mouse", "procedure": "FIG. 4A depicts an experimental design and FIG. 4B is a bar graph. Ixazomib (IXZ) potentiation of NLRP3 inflammasome activation inhibited by CDDO-2P-Im. Bone marrow derived macrophages (BMDM) were treated with Ixazomib (IXZ) and LPS (100 ng/ml) for 20 hours. Primed-BMDM were treated with CDDO-2P-Im (100 nM) for 15 min, followed by stimulation of ATP (5 mM) for 45 min. Supernatant were analyzed by ELISA for IL-1β release.\nFIG. 6 is a set of bar graphs. CDDO-Im, CDDO-2P-Im (right panel), and CDDO-3P-Im (left panel) inhibit IL-1β production by NLRP3 inflammasome activation. LPS primed-BMDM were treated with different doses of CDDO-Im, CDDO-2P-Im, or CDDO-3P-Im for 15 min before ATP (5 mM) was added for 45 min. Supernatant were analyzed by ELISA for IL-1β.\nTo explore the potential that CDDO-2P-IM may enhance the MM response to proteasome inhibitors via inhibition of inflammasome activity, the effect of CDDO-2P-IM on activation of the NLRP3 complex (as defined by IL-1β production), in the presence or absence of IXZ in primary mouse bone marrow derived macrophages (BMDM) was evaluated. In the experiment, BMDM were primed by lipopolysaccharide (LPS) in the presence or absence of IXZ for 4 hours, followed by a brief ([…]) exposure to CDDO-2P-IM after which inflammasome activation was triggered by ATP.\nThe effects of the pyridyl derivatives of CDDO-IM, (specifically, CDDO-2P-Im and CDDO-3P-Im) on NLRP3 inflammasome activation were tested in mouse BMDMs. Cells were first primed with LPS for 4 hours, then pretreated with specific doses of either CDDO-Im, CDDO-2P-IM or CDDO-3P-Im (30-1000 nM) for 15 min before ATP was added for another 45 min. CDDO-Im and its pyridyl derivatives inhibited the amount of caspase-p10 (an auto-processed fragment of caspase-1) released into cell culture supernatants in a dose-dependent manner as measured by Western blot (FIG. 5). […] The effect on caspase-1 activation is specific for the NLRP3 inflammasome as the AIM2 inflammasome activation by poly(dA:dT) was not inhibited by the synthetic CDDO-Im derivatives (data not shown)."}, "[2]": {"test_system": "5T33MM cells", "assay": "5T33MM syngeneic preclinical model of multiple myeloma", "format": "in vivo", "from_the_text": "FIG. 1 is a survival curve. Survival of mice receiving either ixazomib (IXZ) or CDDO-2P-Im starting 21 days after tumor cell injection (n=5 mice per group). CDDO-2P-Im is active in the […] preclinical model of multiple myeloma.\nA well-characterized syngeneic model of MM was employed. Adoptive transfer of 5T33MM cells into C57BL/KaLwRij recipient mice invariably leads to MM bone disease, impaired hematopoietic function and death.\nTo monitor MM tumor progression in the 5T33MM preclinical model, a 5T33MM cell line that expresses either luciferase or GFP genes was established by transducing with lentiviral particles containing firefly luciferase and GFP genes (Amsibo, Cambridge, MA); cells were selected with FACS sorting for GFP expression and by puromycin-resistance. For these experiments, 1×10^6 5T33MM-luc cells were introduced by intravenous injection into C57BL/KaLwRij mice at 2 months of age. Bioluminescence (BLI) was measured by using the IVIS Imaging System 100 (Xenogen). At 3 weeks after 5T33MM cell inoculation (where mice have established disease by BLI), mice were randomized to receive either vehicle, CDDO-2P-IM ([…] daily administered by oral gavage (po), 5 days/week), or ixazomib (IXZ; 6 mg/kg per week, administered po every Monday, Wednesday and Friday)."}, "[3]": {"assay": "Drug levels in brain after systemic dosing, HPLC/Mass Spec", "format": "in vivo, Mice", "procedure": "Mice (3 per group) were treated with single intraperitoneal (i.p.) doses of either 1 micromole (low dose) or 2 micromoles (high dose) of CDDO-2P-Im in DMSO. Brains were analyzed either 3 or 6 hours after dosing. Brains were homogenized in saline, then extracted with acetonitrile, and the extracts subjected to HPLC/Mass Spec analysis, using appropriate standard curves from spiked homogenates. Values obtained (in nanomoles/kg of brain) were: 270+/−80 (low dose, 3 hours); 300+/−90 (low dose, 6 hours); 2,600+/−2,200 (high dose, 3 hours); and 540+/−260 (high dose, 6 hours).\nA second experiment with oral or i.p. dosing of 1 micromole of CDDO-2P-Im, and analysis at 6 hours, confirmed the above results, with drug levels in brain ranging from 140 to 900 nanomoles/kg of brain in 10 different samples from cerebral cortex."}, "[4]": {"test_system": "5T33MM cells", "assay": "MM cell proliferation (confluence), IncuCyte imaging", "format": "cell-based, murine", "conditions": "72 hours", "procedure": "FIG. 2 is a bar graph. CDDO-2P-Im inhibits proliferation of multiple myeloma cell line in vitro. 5T33MM, RPMI8226, and ARH77 cells were seeded in 96-well plates and incubated with CDDO-2P-Im (50 nM-150 nM). Confluence (cell proliferation) was measured using IncuCyte imaging after 72 hours. *p<0.01 compared to control.\nFIG. 3 is a bar graph. […] Shown here are results for 5T33MM (50 nM TTX01/7.5 nM IXZ); RPMI8226 (100 nM TTX01/7.5 nM IXZ); and ARH77 (150 nM TTX01/10 nM IXZ). Confluence (cell proliferation) was measured using IncuCyte imaging after 72 hours.\nTo examine tumor-intrinsic effects of CDDO-2P-IM in the 5T33MM cell line and in human MM cells, conducted a series of in vitro studies was conducted. For these experiments, 96-well plates were first coated in poly-L-ornithine before cells were seeded (in triplicate), including the murine 5T33MM and the human RPMI8226, and ARH77 cell lines (15,000 cells per well). Cells were incubated in IncuCyte™ Live-Cell Analysis System for 72 hours (images were taken every 4 hours). To define dose-dependent effect of CDDO-2P-IM, cells were exposed to concentrations ranging from 50 nM to 150 nM. To examine potential synergy of CDDO-2P-IM with IXZ, MM cells were exposed to IXZ (7 nM-10 nM) either alone or in combination with CDDO-2P-IM."}},
  "data": [
    {"smiles": "CC1(C)CC[C@]2(C(=O)n3cnc(-c4ccccn4)c3)CC[C@]3(C)[C@H](C(=O)C=C4[C@@]5(C)C=C(C#N)C(=O)C(C)(C)[C@@H]5CC[C@]43C)[C@@H]2C1", "note": "[CDDO-2P-Im, 1-[2-Cyano-3,12-dioxooleana-1,9(11)-dien-28-oyl]-4(-pyridin-2-yl)-1H-imidazole]", "values": [
      {"measurement": "IL-1β release, IXZ potentiation of NLRP3 inflammasome activation", "setting": "[1]; BMDM primed with IXZ and LPS, CDDO-2P-Im 100 nM 15 min before ATP (5 mM) 45 min", "value": "inhibited"},
      {"measurement": "NLRP3 inflammasome activation (IL-1β production)", "setting": "[1]; BMDM primed with LPS in absence of IXZ, ATP trigger", "value": "direct suppression"},
      {"measurement": "IL-1β production by NLRP3 inflammasome activation", "setting": "[1]; LPS primed BMDM, different doses (30-1000 nM) 15 min before ATP (5 mM) 45 min, ELISA", "value": "inhibit"},
      {"measurement": "anti-MM activity (survival) as a single agent", "setting": "[2]; daily oral gavage 5 days/week from 3 weeks after 5T33MM-luc inoculation, compared to IXZ 6 mg/kg per week po", "value": "comparable to or better than IXZ"},
      {"measurement": "tolerability", "setting": "[2]; daily oral regimen", "value": "well tolerated"},
      {"measurement": "level in brain", "setting": "[3]; single i.p. 1 micromole (low dose) in DMSO, 3 hours", "value": "270+/−80 nanomoles/kg of brain"},
      {"measurement": "level in brain", "setting": "[3]; single i.p. 1 micromole (low dose) in DMSO, 6 hours", "value": "300+/−90 nanomoles/kg of brain"},
      {"measurement": "level in brain", "setting": "[3]; single i.p. 2 micromoles (high dose) in DMSO, 3 hours", "value": "2,600+/−2,200 nanomoles/kg of brain"},
      {"measurement": "level in brain", "setting": "[3]; single i.p. 2 micromoles (high dose) in DMSO, 6 hours", "value": "540+/−260 nanomoles/kg of brain"},
      {"measurement": "proliferation (confluence), combination with IXZ", "setting": "[4]; 50 nM TTX01/7.5 nM IXZ", "value": "act synergistically"},
      {"measurement": "proliferation (confluence), agent added alone", "setting": "[4]; 50 nM TTX01 or 7.5 nM IXZ alone", "value": "only partially effective"},
      {"measurement": "proliferation (confluence)", "setting": "[4]; 50 nM-150 nM", "value": "significant dose-dependent suppressive effects"}
    ]}
  ]
}
